Test results published in patent US6514946B1, “Macrolide antibiotics and treatment and prophylaxis of pasteurellosis using the same” (Zaidan Hojin Biseibutsu Kagaku Kenkyu Kai, priority 1999, dated 2003).
Converted amounts (≈) assume the structure as drawn.

What was measured:
E. coli K-12 R-5 = test: Minimum inhibition concentration (MIC), agar double dilution method; type: cell-based, Escherichia coli; conditions: Escherichia coli, K12R5, Mueller hinton agar, read-out: MIC
How it was run: (§1)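 Method: Japan Society of Chemotherapy standard, agar double dilution. Medium: Mueller Hinton agar for the listed strains. Exception: Pasteurella on BHI agar.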

P. haemolytica 63-39 = test: Sensitivity (MIC), agar plate dilution method; conditions: Mannheimia haemolytica, 6339
[1] = tested on: S. aureus Smith (virulent strain); test: microbe, parasite or virus in culture; type: cell-based, Staphylococcus aureus; conditions: Staphylococcus aureus
How it was run: (§2)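 Compounds were serially double-diluted into Mueller Hinton agar, following the Japan Society of Chemotherapy standard, and the test strains were then grown on it. Pasteurella alone was tested on brain heart infusion agar.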

H. somnus = test: Bacteria separation test from nasal cavity swab; type: in vivo, cattle
[2] = In vivo kinetics (absorption and excretion test) in mice; conditions: male, Slc ddY, mouse, sc, 5 mg/kg
[3] = tested on: Past haemolytica BAPO103 S801; test: Minimum inhibition concentration (MIC), agar double dilution method; type: cell-based, Pasteurella haemolytica; conditions: Mannheimia haemolytica, BAPO103S801; Past haemolytica BAPO103 S801, strain from poultry; BHI agar; read-out: MIC
How it was run: as §2

[4] = tested on: Past haemolytica BBPO102 N811; test: as above; type: cell-based, Pasteurella haemolytica; conditions: Mannheimia haemolytica, BBPO102N811
How it was run: as §1

M. bovis = type: in vivo, cattle; conditions: nasal cavity swab
[5] = tested on: Pasteurella haemolytica BBPO101 N791; test: Minimum inhibition concentration (MIC), agar double dilution method; type: cell-based; conditions: Mannheimia haemolytica, BBPO101N791
How it was run: as §2

[6] = tested on: Enterobacter aerogenes ATCC13048; test: as above; type: cell-based; conditions: Klebsiella aerogenes, Mueller hinton agar, read-out: MIC
How it was run: as §1

Proteus vulgaris OX19 = test: as above; type: cell-based; conditions: Mueller hinton agar, read-out: MIC
How it was run: as §1

[7] = tested on: Shigella dysenteriae JS11910; test: as above; type: cell-based; conditions: Shigella dysenteriae, JS11910
How it was run: as §2

[8] = tested on: Salmonella enteritidis 1891; test: as above; type: cell-based; conditions: Salmonella enterica, Mueller hinton agar, read-out: MIC
How it was run: as §1

Serratia marcescens = test: as above; type: cell-based; conditions: Mueller hinton agar, read-out: MIC
How it was run: as §1

[9] = tested on: Klebsiella pneumoniae PCI602; test: as above; type: cell-based; conditions: Mueller hinton agar, read-out: MIC
How it was run: as §1

[10] = tested on: Bacillus subtilis NRRL B-558; test: as above; type: cell-based; conditions: Bacillus subtilis, NRRLB558
How it was run: as §2

Escherichia coli NIHJ = test: as above; type: cell-based; conditions: Mueller hinton agar, read-out: MIC
How it was run: as §1

[11] = tested on: Staphylococcus aureus 193; test: as above; type: cell-based; conditions: Mueller hinton agar, read-out: MIC
How it was run: as §1

[12] = tested on: Micrococcus luteus PCI1001; test: as above; type: cell-based; conditions: Mueller hinton agar, read-out: MIC
How it was run: as §1

S. aureus FDA209P = test: as above; type: cell-based, Staphylococcus aureus; conditions: Staphylococcus aureus, Mueller hinton agar, read-out: MIC
How it was run: as §1

M. bovirhinis = test: Bacteria separation test from nasal cavity swab; type: in vivo, cattle
[13] = tested on: P. haemolytica 63-39 intraperitoneally infected mice; test: Antiinfective test on infected mice
[14] = tested on: bovine bacterial pneumonia (Mycoplasma, Ureaplasma and Pasteurella); test: Clinical test against bovine bacterial pneumonia; type: in vivo, cattle; design: Average clinical score: scale not given here
From the text: Test 5: Clinical Test Against Bovine Bacterial Pneumonia
In this test, each drug was subcutaneously administered to cattle suffering from bacterial pneumonia (infectious diseases with Mycoplasma, Ureaplasma and Pasteurella), respectively, and the clinical effect of P-MT was compared with those of tilmicosin and C-9.
Tests are made on 17 case of one to two-month-old Holstein cattle (weight 56 to 101 kg) suffering from bacterial pneumonia caused by single or mixed infection of Pasteurella, Mycoplasma, Ureaplasma and Haemophilus (6 animals for each of P-MT and C-9 and 5 animals for tilmicosin). The drug was subcutaneously administered to the animals once a day in an amount of 10 mg/kg.
Three calves showing a similar degree of symptoms at the start of the test were arranged in one group. Each subject of the same group was respectively tested with one of the above three compounds. Ailing calves were successively grouped when being available.
Clinical findings, based on the daily observation from the time of the administration through the 5th day of the trial, were scored on each item according to the criteria in the table below. The clinical efficacy of the compounds was judged on the 5th day.
As to judgment based on the clinical symptoms, cases which could be judged among each group were classified into remarkably effective (85 to 100), effective (70 to under 85), a little effective (50 to under 70) and infective (under 50) according to the following improvement rate by clinical scores, and after summing up, the following effective rate was calculated, the difference in the effective rate among the groups was determined using a statistical method, and thus effectivity was judged. [formula]

P. multocida = test: Bacteria separation test from nasal cavity swab; type: in vivo, cattle
[15] = before administration (baseline)

For `CC[C@H]1OC(=O)C[C@@H](O)[C@H](C)[C@@H](O[C@@H]2O[C@H](C)C(O)C(N(C)C)C2O)[C@@H](CCN2CC(C)CC(C)C2)C[C@@H](C)C(=O)/C=C/C(C)=C/[C@@H]1CO[C@@H]1OC(C)C(O)[C@@H](OC)C1OC` (some centres unmarked) [Tilmicosin, tilmicosin], which MIC (E. coli K-12 R-5) is on record?
Its MIC is greater than 100 µg/mL.

And the MIC (P. haemolytica 63-39)?
Its MIC is 3.13 µg/mL (≈ 3.6 µM).

What about the MIC [1] of the same molecule?
The MIC was 1.56 µg/mL (≈ 1.79 µM).

What about the “Separation rate (%) at completion (number of animal)” value (“Separation rate (%) at completion” below) (H. somnus; at completion) of the same molecule?
Its value is 0 (0/5) % (number of animal).

What about the “Separation rate (%) before administration (number of animal)” value (H. somnus; [15]) of the same molecule?
The value was 0 (0/5) % (number of animal).

And the concentration at 0.5 h ([2]; lung)?
The concentration at 0.5 h was 310 ng/g.

What about the concentration at 1 h ([2]; lung) of the same molecule?
Its concentration at 1 h is 350 ng/g.

What about the concentration at 2 h ([2]; lung) of the same molecule?
The concentration at 2 h was 310 ng/g.

And the concentration at 4 h ([2]; lung)?
Its concentration at 4 h is 230 ng/g.

And the concentration at 8 h ([2]; lung)?
Its concentration at 8 h is 195 ng/g.

What about the concentration at 24 h ([2]; lung) of the same molecule?
The concentration at 24 h was 60 ng/g.

What about the concentration at 0.5 h ([2]; serum) of the same molecule?
Its concentration at 0.5 h is 230 ng/mL.

And the concentration at 1 h ([2]; serum)?
The concentration at 1 h was 60 ng/mL.

And the concentration at 2 h ([2]; serum)?
The concentration at 2 h was 50 ng/mL.

What about the concentration at 4 h ([2]; serum) of the same molecule?
Its concentration at 4 h is 40 ng/mL.

And the MIC [3]?
Its MIC is 50 µg/mL (≈ 57.5 µM).

What about the MIC [4] of the same molecule?
Its MIC is 1.56 µg/mL (≈ 1.79 µM).

What about the “Separation rate (%) at completion” value (M. bovis; at completion) of the same molecule?
The value was 40 (2/5) % (number of animal).

What about the “Separation rate (%) before administration (number of animal)” value (M. bovis; [15]) of the same molecule?
Its value is 40 (2/5) % (number of animal).

What about the MIC [5] of the same molecule?
The MIC was 1.56 µg/mL (≈ 1.79 µM).

What about the MIC [6] of the same molecule?
Its MIC is 100 µg/mL (≈ 115 µM).

What about the MIC (Proteus vulgaris OX19) of the same molecule?
Its MIC is 100 µg/mL (≈ 115 µM).

What about the MIC [7] of the same molecule?
Its MIC is 100 µg/mL (≈ 115 µM).

What about the MIC [8] of the same molecule?
The MIC was 6.25 µg/mL (≈ 7.19 µM).

And the MIC (Serratia marcescens)?
The MIC was greater than 100 µg/mL.

What about the MIC [9] of the same molecule?
The MIC was 25 µg/mL (≈ 28.8 µM).

And the MIC [10]?
Its MIC is 1.56 µg/mL (≈ 1.79 µM).

What about the MIC (Escherichia coli NIHJ) of the same molecule?
The MIC was 25 µg/mL (≈ 28.8 µM).

What about the MIC [11] of the same molecule?
The MIC was 0.39 µg/mL (≈ 0.449 µM).

What about the MIC [12] of the same molecule?
The MIC was 0.2 µg/mL (≈ 0.23 µM).

And the MIC (S. aureus FDA209P)?
The MIC was 0.39 µg/mL (≈ 0.449 µM).

What about the “Separation rate (%) at completion” value (M. bovirhinis; at completion) of the same molecule?
The value was 60 (3/5) % (number of animal).

And the “Separation rate (%) before administration (number of animal)” value (M. bovirhinis; [15])?
The value was 60 (3/5) % (number of animal).

What about the ED50 ([13]; Mannheimia haemolytica, in Mus musculus, sc, 168 h, read-out: ED50 (95% confidence limit)) of the same molecule?
Its ED50 is 26.2 mg/kg.

And the “Surviving number after 7 days/test number” value ([13]; dose 1 mg/kg subcutaneous one hour after infection)?
The value was 0/10.

What about the “Surviving number after 7 days/test number” value ([13]; dose 5 mg/kg subcutaneous one hour after infection) of the same molecule?
The value was 0/10.

And the “Surviving number after 7 days/test number” value ([13]; dose 10 mg/kg subcutaneous one hour after infection)?
The value was 3/10.

And the “Surviving number after 7 days/test number” value ([13]; dose 20 mg/kg subcutaneous one hour after infection)?
The value was 4/10.

What about the “Surviving number after 7 days/test number” value ([13]; dose 30 mg/kg subcutaneous one hour after infection) of the same molecule?
Its value is 5/10.

And the ED90 ([13]; probit method from surviving numbers after 7 days, subcutaneous)?
The ED90 was 102.1 mg/kg.

What about the Average clinical score ([14]; 1 day after completion of administration, cattle, 10 mg/kg subcutaneous) of the same molecule?
The Average clinical score was 3.5.

And the Average clinical score ([14]; 2 days after completion of administration)?
The Average clinical score was 2.8.

And the Average clinical score ([14]; 3 days after completion of administration)?
The Average clinical score was 2.2.

And the Average clinical score ([14]; 4 days after completion of administration)?
Its Average clinical score is 2.7.

What about the “Effective rate (%) in clinical effect” value ([14]; (remarkably effective + effective case number)/test case number × 100) of the same molecule?
The value was 40%.

And the “Average symptomatic improvement rate (%)” value ([14]; (score before − score after administration)/score before × 100)?
Its value is 65.6%.

What about the Average clinical score ([14]; at administration (baseline), cattle, 10 mg/kg subcutaneous) of the same molecule?
The Average clinical score was 6.5.

And the “A little effective (%) (case number)” value ([14]; improvement rate 50 to under 70)?
Its value is 20 (1) % (case number).

What about the “Effective (%) (case number)” value ([14]; improvement rate 70 to under 85) of the same molecule?
Its value is 0 (0) % (case number).

What about the “Remarkably effective (%) (case number)” value ([14]; improvement rate 85 to 100) of the same molecule?
The value was 40 (2) % (case number).

What about the “Ineffective (%) (case number)” value ([14]; improvement rate under 50) of the same molecule?
The value was 40 (2) % (case number).

And the “Separation rate (%) at completion” value (P. multocida; at completion)?
Its value is 80 (4/5) % (number of animal).

What about the “Separation rate (%) before administration (number of animal)” value (P. multocida; [15]) of the same molecule?
The value was 100 (5/5) % (number of animal).
